In patent US20230141600A1, “IMIDAZOPYRAZINE DERIVATIVES” (priority 2020, published 2023):
Where a name gives a salt, the structure may show the parent alone.

tested on: Acinetobacter baumannii ATCC17961; assay: 90% growth inhibitory concentration (IC90) determination, antimicrobial susceptibility testing; type: cell-based; conditions: Acinetobacter baumannii, ATCC17961, 16 h, 90% growth inhibition, Iso-Sensitest broth, OD 600 nm over 16 h, 35±2° C.; read-out: ATCC 17961 IC90
Procedure, shortened: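 Twofold serial dilutions (e.g. 50 to 0.097 μM final) in Iso-Sensitest broth, inoculated at ~5×10^5 CFU/ml and incubated at 35±2 °C for 16 h with OD600 read every minute. IC90 taken from growth inhibition during the logarithmic phase.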

Q: Which IC90 does the source give for `CCc1cc(Nc2nccn3c(-c4ccc(OC(F)F)c(F)c4F)cnc23)ccc1C(=O)NCCNC(=O)C1CC[N+](C)(CC2CCNC2)CC1` (stereo not shown) [Example 102, N-[2-[[4-[[3-[4-(Difluoromethoxy)-2,3-difluoro-phenyl]imidazo[1,2-a]pyrazin-8-yl]amino]-2-ethyl-benzoyl]amino]ethyl]-1-methyl-1-(pyrrolidin-3-ylmethyl)piperidin-1-ium-4-carboxamide bis(2,2,2-trifluoroacetate)] here?
A: 223 nM

Q: Which IC90 does the source give for `C[N+]1(CC2CCNC2)CCC(C(=O)N2CCN(C(=O)c3ccc(Nc4nccn5c(-c6ccc(OC(F)F)c(F)c6F)cnc45)cc3F)CC2)CC1` (stereo not shown) [Example 103, [4-[[3-[4-(Difluoromethoxy)-2,3-difluoro-phenyl]imidazo[1,2-a]pyrazin-8-yl]amino]-2-fluoro-phenyl]-[4-[1-methyl-1-(pyrrolidin-3-ylmethyl)piperidin-1-ium-4-carbonyl]piperazin-1-yl]methanone 2,2,2-trifluoroacetate] here?
A: 77.9 nM

Q: Which IC90 does the source give for `CCc1cc(Nc2nccn3c(-c4ccc(OC)c(F)c4F)cnc23)ccc1C(=O)NCCCCC[N+](C)(CCCCN)CC(=O)O` (stereo not shown) [Example 105, 4-aminobutyl-(carboxymethyl)-[5-[[4-[[3-(2,3-difluoro-4-methoxy-phenyl)imidazo[1,2-a]pyrazin-8-yl]amino]-2-ethyl-benzoyl]amino]pentyl]-methyl-ammonium Formate] here?
A: 144 nM

Q: Which IC90 does the source give for `CCc1cc(Nc2nccn3c(-c4ccc(OC)c(F)c4F)cnc23)ccc1C(=O)NCCCCC[N+](C)(CC(=O)O)CC1CNC1` (stereo not shown) [Example 106, Azetidin-3-ylmethyl-(carboxymethyl)-[5-[[4-[[3-(2,3-difluoro-4-methoxy-phenyl)imidazo[1,2-a]pyrazin-8-yl]amino]-2-ethyl-benzoyl]amino]pentyl]-methyl-ammonium Formate] here?
A: 241 nM

Q: How did the IC90 turn out when `CCc1cc(Nc2nccn3c(-c4ccc(OC)c(F)c4F)cnc23)ccc1C(=O)NCCCCC[N+](C)(CCCC(=O)O)CC1CNC1` (stereo not shown) [Example 107, Azetidin-3-ylmethyl-(3-carboxypropyl)-[5-[[4-[[3-(2,3-difluoro-4-methoxy-phenyl)imidazo[1,2-a]pyrazin-8-yl]amino]-2-ethyl-benzoyl]amino]pentyl]-methyl-ammonium 2,2,2-trifluoroacetate] was run?
A: 434 nM

Q: For `C[N+](C)(C)CCN[C@H]1C[C@@H](NC(=O)c2ccc(Nc3nccn4c(-c5c[nH]nc5C(F)(F)F)cnc34)cc2Cl)C1` [Example 108, 2-[[3-[[2-chloro-4-[[3-[3-(trifluoromethyl)-1H-pyrazol-4-yl]imidazo[1,2-a]pyrazin-8-yl]amino]benzoyl]amino]cyclobutyl]amino]ethyl-trimethyl-ammonium Formate], which IC90 is on record?
A: 1590 nM

Q: Which IC90 does the source give for `CCc1cc(Nc2nccn3c(-c4cn(CC#N)nc4C(F)(F)F)cnc23)ccc1C(=O)NCCCCC[N+](C)(CC(=O)O)CC1CNC1` (stereo not shown) [Example 109, Azetidin-3-ylmethyl-(carboxymethyl)-[5-[[4-[[3-[1-(cyanomethyl)-3-(trifluoromethyl)pyrazol-4-yl]imidazo[1,2-a]pyrazin-8-yl]amino]-2-ethyl-benzoyl]amino]pentyl]-methyl-ammonium Formate] here?
A: 3830 nM

Q: Which IC90 does the source give for `CCc1cc(Nc2nccn3c(-c4cn(CC#N)nc4C(F)(F)F)cnc23)ccc1C(=O)NCCCCC[N+](C)(C)CC(=O)O` [Example 110, Carboxymethyl-[5-[[4-[[3-[1-(cyanomethyl)-3-(trifluoromethyl)pyrazol-4-yl]imidazo[1,2-a]pyrazin-8-yl]amino]-2-ethyl-benzoyl]amino]pentyl]-dimethyl-ammonium Formate] here?
A: 4300 nM

Q: With `Cc1cc(Nc2nccn3c(-c4cn(C)nc4C(F)(F)F)cnc23)ccc1C(=O)N1CCN(C(=O)C[N+](C)(C)C)CC1` [Example 111, Trimethyl-[2-[4-[2-methyl-4-[[3-[1-methyl-3-(trifluoromethyl)pyrazol-4-yl]imidazo[1,2-a]pyrazin-8-yl]amino]benzoyl]piperazin-1-yl]-2-oxo-ethyl]ammonium Formate] as the molecule, how does the IC90 read?
A: 2800 nM

Q: Which IC90 does the source give for `CCc1cc(Nc2nccn3c(-c4ccc(OC)c(F)c4F)cnc23)ccc1C(=O)NCCCCC[N+](C)(CC(=O)O)CC(=O)O` [Example 112, bis(carboxymethyl)-[5-[[4-[[3-(2,3-difluoro-4-methoxy-phenyl)imidazo[1,2-a]pyrazin-8-yl]amino]-2-ethyl-benzoyl]amino]pentyl]-methyl-ammonium 2,2,2-trifluoroacetate] here?
A: 2560 nM

Q: Which IC90 does the source give for `CCc1cc(Nc2nccn3c(-c4cn(CC(F)F)nc4C(F)(F)F)cnc23)ccc1C(=O)NCCCCC[N+](C)(C)CC(=O)O` [Example 113, Carboxymethyl-[5-[[4-[[3-[1-(2,2-difluoroethyl)-3-(trifluoromethyl)pyrazol-4-yl]imidazo[1,2-a]pyrazin-8-yl]amino]-2-ethyl-benzoyl]amino]pentyl]-dimethyl-ammonium Formate] here?
A: 2480 nM

Q: For `CCc1cc(Nc2nccn3c(-c4ccc(OC)c(F)c4F)cnc23)ccc1C(=O)NCC1CC[N+](C)(CC(=O)O)CC1` (stereo not shown) [Example 115, 2-[4-[[[4-[[3-(2,3-Difluoro-4-methoxy-phenyl)imidazo[1,2-a]pyrazin-8-yl]amino]-2-ethyl-benzoyl]amino]methyl]-1-methyl-piperidin-1-ium-1-yl]acetic acid 2,2,2-trifluoroacetate], which IC90 is on record?
A: 205 nM

Q: Which IC90 does the source give for `C[N+]1(CC2CCNC2)CCC(C(=O)N2CCN(C(=O)c3ccc(Nc4nccn5c(-c6ccc(OC(F)F)c(F)c6F)cnc45)cc3Cl)CC2)CC1` (stereo not shown) [Example 116, [2-Chloro-4-[[3-[4-(difluoromethoxy)-2,3-difluoro-phenyl]imidazo[1,2-a]pyrazin-8-yl]amino]phenyl]-[4-[1-methyl-1-(pyrrolidin-3-ylmethyl)piperidin-1-ium-4-carbonyl]piperazin-1-yl]methanone Formate] here?
A: 81.1 nM

Q: How did the IC90 turn out when `C[N+]1(CC2CCNC2)CCC(C(=O)NCCCNC(=O)c2ccc(Nc3nccn4c(-c5ccc(OC(F)F)c(F)c5F)cnc34)cc2Cl)CC1` (stereo not shown) [Example 117, N-[3-[[2-Chloro-4-[[3-[4-(difluoromethoxy)-2,3-difluoro-phenyl]imidazo[1,2-a]pyrazin-8-yl]amino]benzoyl]amino]propyl]-1-methyl-1-(pyrrolidin-3-ylmethyl)piperidin-1-ium-4-carboxamide Formate] was run?
A: 157 nM

Q: For `CCc1cc(Nc2nccn3c(-c4ccc(Oc5ncccn5)c(F)c4F)cnc23)ccc1C(=O)NCC1CC[N+](C)(CC2CCNC2)CC1` (stereo not shown) [Example 118, 4-[[3-(2,3-Difluoro-4-pyrimidin-2-yloxy-phenyl)imidazo[1,2-a]pyrazin-8-yl]amino]-2-ethyl-N-[[1-methyl-1-(pyrrolidin-3-ylmethyl)piperidin-1-ium-4-yl]methyl]benzamide Formate], which IC90 is on record?
A: 832 nM

Q: With `CCc1cc(Nc2nccn3c(-c4ccc(OC(F)F)c(F)c4F)cnc23)ccc1C(=O)N1CC[N+](C)(CC2CCNC2)CC1` (stereo not shown) [Example 119, [4-[[3-[4-(Difluoromethoxy)-2,3-difluoro-phenyl]imidazo[1,2-a]pyrazin-8-yl]amino]-2-ethyl-phenyl]-[4-methyl-4-(pyrrolidin-3-ylmethyl)piperazin-4-ium-1-yl]methanone Formate] as the molecule, how does the IC90 read?
A: 1700 nM

Q: With `CCc1cc(Nc2nccn3c(-c4ccc(OC)c(F)c4F)cnc23)ccc1C(=O)N[C@H]1C[C@@H](NC(=O)C2CC[N+](C)(CC3CNC3)CC2)C1` (stereo partly shown) [Example 126, 1-(Azetidin-3-ylmethyl)-N-[3-[[4-[[3-(2,3-difluoro-4-methoxy-phenyl)imidazo[1,2-a]pyrazin-8-yl]amino]-2-ethyl-benzoyl]amino]cyclobutyl]-1-methyl-piperidin-1-ium-4-carboxamide formate 2,2,2-trifluoroacetate (Mixed Salt)] as the molecule, how does the IC90 read?
A: 111 nM

Q: How did the IC90 turn out when `CCc1cc(Nc2nccn3c(-c4ccc(OC)c(F)c4F)cnc23)ccc1C(=O)NCC1CC(NC(=O)C2CC[N+](C)(CC3CNC3)CC2)C1` (stereo not shown) [Example 127, 1-(Azetidin-3-ylmethyl)-N-[3-[[[4-[[3-(2,3-difluoro-4-methoxy-phenyl)imidazo[1,2-a]pyrazin-8-yl]amino]-2-ethyl-benzoyl]amino]methyl]cyclobutyl]-1-methyl-piperidin-1-ium-4-carboxamide formate 2,2,2-trifluoroacetate (Mixed Salt)] was run?
A: 258 nM

Q: How did the IC90 turn out when `CCc1cc(Nc2nccn3c(-c4ccc(OC)c(F)c4F)cnc23)ccc1C(=O)NCC1CC[N+](CC(=O)O)(CC2CNC2)CC1` (stereo not shown) [Example 128, 2-[1-(Azetidin-3-ylmethyl)-4-[[[4-[[3-(2,3-difluoro-4-methoxy-phenyl)imidazo[1,2-a]pyrazin-8-yl]amino]-2-ethyl-benzoyl]amino]methyl]piperidin-1-ium-1-yl]acetic acid bis(2,2,2-trifluoroacetate)] was run?
A: 343 nM

Q: How did the IC90 turn out when `CCc1cc(Nc2nccn3c(-c4ccc(OC)c(F)c4F)cnc23)ccc1C(=O)NCCCNC(=O)C1CC[N+](C)(CC2CNC2)CC1` (stereo not shown) [Example 129, 1-(Azetidin-3-ylmethyl)-N-[3-[[4-[[3-(2,3-difluoro-4-methoxy-phenyl)imidazo[1,2-a]pyrazin-8-yl]amino]-2-ethyl-benzoyl]amino]propyl]-1-methyl-piperidin-1-ium-4-carboxamide bis(trifluoroacetate)] was run?
A: 86.2 nM

Q: For `CCc1cc(Nc2nccn3c(-c4ccc(OC)c(F)c4F)cnc23)ccc1C(=O)NCCCNC(=O)C[C@@H]1CC[N+](C)(CC2CNC2)C1` (stereo partly drawn) [Example 130, N-[3-[[2-[(3S)-1-(Azetidin-3-ylmethyl)-1-methyl-pyrrolidin-1-ium-3-yl]acetyl]amino]propyl]-4-[[3-(2,3-difluoro-4-methoxy-phenyl)imidazo[1,2-a]pyrazin-8-yl]amino]-2-ethyl-benzamide bis(2,2,2-trifluoroacetate)], which IC90 is on record?
A: 108 nM

same assay, conditions: Acinetobacter baumannii, ATCC17961, 16 h, read-out: ATCC 17961 IC90

Q: With `CCc1cc(Nc2nccn3c(-c4ccc(OC)c(F)c4F)cnc23)ccc1C(=O)NCCCCC[N+](C)(CCCN)CC(=O)O` (stereo not shown) [Example 104, 3-aminopropyl-(carboxymethyl)-[5-[[4-[[3-(2,3-difluoro-4-methoxy-phenyl)imidazo[1,2-a]pyrazin-8-yl]amino]-2-ethyl-benzoyl]amino]pentyl]-methyl-ammonium Formate] as the molecule, how does the IC90 read?
A: 118 nM
